Data published in US10266548B2, “Substituted benzylindazoles for use as Bub1 kinase inhibitors in the treatment of hyperproliferative diseases” (Bayer Intellectual Property GmbH, priority 2011, dated 2019).
Read-outs that look alike come from different tables or passages of the source.

What was measured:
[1] = target: catalytic domain of human Bub1 (amino acids 704-1085) (Homo sapiens (Human), UniProt O43683); test: Bub1 kinase assay (TR-FRET); format: biochemical; conditions: 10 μM ATP, 1 μM peptide substrate; read-out: Biological Assay 1: Bub1 kinase assay median IC50
Chain of catalytic domain of human Bub1 (amino acids 704-1085) (O43683 704-1085): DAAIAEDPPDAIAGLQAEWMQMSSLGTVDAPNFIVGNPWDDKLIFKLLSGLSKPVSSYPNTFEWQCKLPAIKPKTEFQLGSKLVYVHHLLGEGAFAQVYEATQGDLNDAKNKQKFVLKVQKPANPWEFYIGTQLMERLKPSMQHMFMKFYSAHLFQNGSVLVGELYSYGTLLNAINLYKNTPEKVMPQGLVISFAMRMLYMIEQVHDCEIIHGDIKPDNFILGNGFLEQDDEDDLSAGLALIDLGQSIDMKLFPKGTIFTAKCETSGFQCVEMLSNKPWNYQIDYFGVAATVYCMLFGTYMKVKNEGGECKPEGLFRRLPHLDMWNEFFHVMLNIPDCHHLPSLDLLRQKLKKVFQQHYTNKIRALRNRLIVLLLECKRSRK
How it was run: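 Phosphoserine product detected by TR-FRET (Eu-labeled anti-mouse IgG/anti-phosphoserine antibody to streptavidin-XL665) after 1 h at 22 °C. IC50 from 4-parameter logistic fit.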

[2] = tested on: HeLa cells; test: Proliferation assay (HeLa cell line); format: cell-based; conditions: read-out: Biological Assay 2: Proliferation assay (HeLa cell line) median IC50
[3] = Homo sapiens, 96 h, 4 days, crystal violet

SMILES	IC50 [1] [nM]	IC50 ([2]; Homo sapiens, 96 h) [nM]	IC50 [2, 3] [nM]	IC50 ([2]; 4 days, crystal violet) [nM]
COc1ccc(Cn2nc(-c3ncc(OC)c(Nc4cc[nH]c(=O)c4)n3)c3ccccc32)cc1 [Example 24-7, 4-({5-methoxy-2-[1-(4-methoxybenzyl)-1H-indazol-3-yl]pyrimidin-4-yl}amino)pyridin-2(1H)-one]	1200	10000	–	–
CCOc1cc(F)c(Cn2nc(-c3ncc(OC)c(Nc4cc[nH]c(=O)c4)n3)c3ccccc32)c(F)c1 [Example 24-8, 4-({2-[1-(4-ethoxy-2,6-difluorobenzyl)-1H-indazol-3-yl]-5-methoxypyrimidin-4-yl}amino)pyridin-2(1H)-one]	26	10000	–	–
COc1cnc(-c2nn(Cc3ccccc3F)c3ccccc23)nc1Nc1ccncc1C(N)=O [Example 25-1, 4-({2-[1-(2-fluorobenzyl)-1H-indazol-3-yl]-5-methoxypyrimidin-4-yl}amino)pyridine-3-carboxamide]	13	–	≥ 10000	–
CCCc1ccc(Cn2nc(-c3ncc(OC)c(Nc4ccncc4C(N)=O)n3)c3ccccc32)cc1 [Example 25-2]	5.4	–	–	≥ 10000
CCOc1cc(F)c(Cn2nc(-c3ncc(OC)c(Nc4ccncc4C(N)=O)n3)c3ccccc32)c(F)c1 [Example 25-3, 4-({2-[1-(4-ethoxy-2,6-difluorobenzyl)-1H-indazol-3-yl]-5-methoxypyrimidin-4-yl}amino)pyridine-3-carboxamide]	8.8	–	4400	–
COc1cnc(-c2nn(Cc3c(F)cc(O)cc3F)c3ccccc23)nc1Nc1ccncc1C(N)=O [Example 25-4]	5.03	–	–	10000
N#Cc1cnccc1Nc1nc(-c2nn(Cc3ccccc3F)c3ccccc23)ncc1O [Example 26-1, 4-({2-[1-(2-fluorobenzyl)-1H-indazol-3-yl]-5-hydroxypyrimidin-4-yl}amino)pyridine-3-carbonitrile]	17	–	9200	–
COc1ccc(Cn2nc(-c3ncc(OC)c(Nc4ccncc4C(F)(F)F)n3)c3ccccc32)cc1 [Example 27-1, 5-methoxy-2-[1-(4-methoxybenzyl)-1H-indazol-3-yl]-N-[3-(trifluoromethyl)pyridin-4-yl]pyrimidin-4-amine]	55	3900	–	–
CNC(=O)c1ccc(Cn2nc(-c3ncc(OC)c(Nc4ccncc4)n3)c3ccccc32)c(Cl)c1 [Example 29-1, formic acid-3-chloro-4-({3-[5-methoxy-4-(pyridin-4-ylamino)pyrimidin-2-yl]-1H-indazol-1-yl}methyl)-N-methylbenzamide (1:1)]	11	–	≥ 10000	–
CNC(=O)c1ccc(Cn2nc(-c3ncc(OC)c(Nc4ccncc4)n3)c3ccccc32)c(Cl)c1 [Example 29-2, 3-chloro-4-({3-[5-methoxy-4-(pyridin-4-ylamino)pyrimidin-2-yl]-1H-indazol-1-yl}methyl)-N-methylbenzamide]	8.9	–	–	≥ 10000
NC(=O)c1cnccc1Nc1nc(-c2nn(Cc3ccccc3F)c3ccccc23)ncc1O [Example 30-1, 4-({2-[1-(2-fluorobenzyl)-1H-indazol-3-yl]-5-hydroxypyrimidin-4-yl}amino)pyridine-3-carboxamide]	17	–	≥ 10000	–
O=C(O)c1cnccc1Nc1nc(-c2nn(Cc3ccccc3F)c3ccccc23)ncc1O [Example 30-2, 4-({2-[1-(2-fluorobenzyl)-1H-indazol-3-yl]-5-hydroxypyrimidin-4-yl}amino)pyridine-3-carboxylic acid]	20	–	≥ 10000	–
CCOC(=O)c1cnccc1Nc1nc(-c2nn(Cc3ccccc3F)c3ccccc23)ncc1O [Example 30-3, ethyl 4-({2-[1-(2-fluorobenzyl)-1H-indazol-3-yl]-5-hydroxypyrimidin-4-yl}amino)pyridine-3-carboxylate]	8.4	–	≥ 10000	–
NC(=O)c1cnc(-c2nn(Cc3ccccc3F)c3ccccc23)nc1Nc1ccncc1 [Example 32-1, 2-[1-(2-fluorobenzyl)-1H-indazol-3-yl]-4-(pyridin-4-ylamino)pyrimidine-5-carboxamide]	120	≥ 10000	–	–
